Experimental data: article PMC10643130, “Molecular basis for selective uptake and elimination of organic anions in the kidney by OAT1” (Nature Structural & Molecular Biology, 2023)

Assays:
[1] = molecular target: T1, wild-type human OAT1 (HsOAT1) (Homo sapiens, UniProt Q4U2R8); assay: Cell-based 6-CF transport assay, wild-type HsOAT1 in HeLa cells; settings: for 6-CF uptake, MEAN: WT (+P), 0.1 mM pemetrexed; for effect on OAT1 transport: 10 mM sodium phosphate
T1 sequence (Q4U2R8 1-563): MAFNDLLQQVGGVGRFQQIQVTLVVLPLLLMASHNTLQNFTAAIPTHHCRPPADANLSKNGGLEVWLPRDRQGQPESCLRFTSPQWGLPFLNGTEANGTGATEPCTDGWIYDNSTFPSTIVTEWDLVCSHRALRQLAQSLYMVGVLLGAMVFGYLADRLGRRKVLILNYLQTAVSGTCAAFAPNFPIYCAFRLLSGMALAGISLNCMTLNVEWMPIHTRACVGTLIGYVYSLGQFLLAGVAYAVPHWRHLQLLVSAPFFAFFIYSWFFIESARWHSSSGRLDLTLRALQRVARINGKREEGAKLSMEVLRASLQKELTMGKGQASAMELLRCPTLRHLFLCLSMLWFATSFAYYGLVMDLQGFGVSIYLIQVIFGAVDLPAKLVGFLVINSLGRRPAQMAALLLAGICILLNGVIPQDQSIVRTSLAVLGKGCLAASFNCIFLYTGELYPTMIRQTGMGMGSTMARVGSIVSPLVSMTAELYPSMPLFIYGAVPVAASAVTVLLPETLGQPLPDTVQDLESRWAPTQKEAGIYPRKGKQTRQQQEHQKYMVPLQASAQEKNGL
Protocol: To assay HsOAT1 transporter activity the model substrate 6-carboxyfluorescein (6-CF)[46],[47]
For transport assays, 1 × 10^5 cells per well were seeded into 24-well plates and 24 h later transfected using FUGENE HD (Promega E2311) Transfection Reagent (0.4 μg DNA per 1 μl of FUGENE per well) with HsOAT1 constructs containing a C-terminal FLAG tag in the vector pCDNA3.1 for 36 h. Expression of each mutant of HsOAT1 was assessed through western blotting on membrane fractions using an anti-FLAG antibody 1:3,000 dilution (Merck F1804), using a loading control of anti-β-actin 1:5,000 dilution (Merck A2228) (Extended Data Fig. 4). […] Background fluorescence was subtracted from cells transfected with the empty plasmid, and the data were normalized to 100%. To assess the activity of HsOAT1 in the presence and absence of chloride, the buffer was 120 mM NaCl, 28 mM glucose and 25 mM HEPES, pH 7.2 or for chloride-free conditions, and 120 mM sodium gluconate was used. […] To study the effect of ligands or inhibitors, the compound of interest was added to the assay buffer at the desired concentration. […] Each concentration was repeated three times to calculate standard errors, and the whole experiment was repeated three times to calculate the mean IC50 and standard error.

[2] = molecular target: T2, HsOAT1 truncation (lacks last 10 amino acids) (Homo sapiens, UniProt Q4U2R8); assay: Cell-based 6-CF transport assay, truncated HsOAT1 lacking the last 10 amino acids; settings: Truncation (+P), 0.1 mM pemetrexed
T2 construct: expressed in transfected cells; host or cells: HeLa
T2 sequence (Q4U2R8 1-552 limits assumed): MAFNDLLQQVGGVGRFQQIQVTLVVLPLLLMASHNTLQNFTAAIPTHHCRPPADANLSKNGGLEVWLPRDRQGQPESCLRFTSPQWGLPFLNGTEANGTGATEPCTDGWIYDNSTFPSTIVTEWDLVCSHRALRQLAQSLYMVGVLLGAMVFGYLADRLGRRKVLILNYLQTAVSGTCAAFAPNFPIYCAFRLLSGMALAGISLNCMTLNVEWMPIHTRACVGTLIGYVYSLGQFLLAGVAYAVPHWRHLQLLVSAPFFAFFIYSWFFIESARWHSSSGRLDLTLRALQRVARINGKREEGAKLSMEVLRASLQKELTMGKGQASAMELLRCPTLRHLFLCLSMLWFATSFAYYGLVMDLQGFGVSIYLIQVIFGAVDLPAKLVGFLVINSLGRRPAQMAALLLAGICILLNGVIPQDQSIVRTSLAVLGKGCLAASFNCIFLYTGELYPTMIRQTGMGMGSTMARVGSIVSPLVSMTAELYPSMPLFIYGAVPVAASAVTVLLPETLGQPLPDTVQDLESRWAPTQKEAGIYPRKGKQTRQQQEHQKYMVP

[3] = test system: URAT1; settings: cited from earlier work
[4] = test system: OAT3; settings: cited from earlier work
[5] = test system: OAT2; settings: cited from earlier work

Nc1nc2[nH]cc(CCc3ccc(C(=O)N[C@@H](CCC(=O)O)C(=O)O)cc3)c2c(=O)[nH]1 [pemetrexed]
inhibition of 6-CF uptake ([1]; 0.1 mM in assay buffer): fully inhibited | substrate quality in 6-CF assay ([1]; 0.5 mM, uptake after 8 minutes, similar to literature ref 20): poor substrates | 6-CF uptake, MEAN ([1]; 1 min): 22 | 6-CF uptake, MEAN ([1]; 5 min): 18.75 | 6-CF uptake, MEAN ([1]; 8 min): 24.75 | 6-CF uptake, MEAN ([1]; 10 min): 17.25 | 6-CF uptake in presence of substrate, single experiments ([1]; substrate 0.5 mM, uptake after 8 minutes): 71% | 6-CF uptake, MEAN ([2]; 1 min): 19.52 | 6-CF uptake, MEAN ([2]; 5 min): 17.65 | 6-CF uptake, MEAN ([2]; 8 min): 16.52 | 6-CF uptake, MEAN ([2]; 10 min): 12.32

CCCN(CCC)S(=O)(=O)c1ccc(C(=O)O)cc1 [probenecid]
inhibition of URAT1 [3]: inhibitor | inhibition of OAT3 [4]: inhibitor | inhibition of OAT2 [5]: poor inhibitor

O=P(O)(O)O [phosphate, sodium phosphate]
effect on OAT1 transport [1]: no impact | effect on OAT1 transport ([1]; listed as sodium phosphate): no effect
